Source: ChEMBL document CHEMBL1138805, “NO-sartans: a new class of pharmacodynamic hybrids as cardiovascular drugs” (J Med Chem, 2004)

Columns and labels:
Assay type in all cases: functional
[1] = target: T1, Type-1 angiotensin II receptor (Homo sapiens) (UniProt P30556); assay: Antagonistic activity against Angiotensin II receptor type 1
T1 sequence (whole entry): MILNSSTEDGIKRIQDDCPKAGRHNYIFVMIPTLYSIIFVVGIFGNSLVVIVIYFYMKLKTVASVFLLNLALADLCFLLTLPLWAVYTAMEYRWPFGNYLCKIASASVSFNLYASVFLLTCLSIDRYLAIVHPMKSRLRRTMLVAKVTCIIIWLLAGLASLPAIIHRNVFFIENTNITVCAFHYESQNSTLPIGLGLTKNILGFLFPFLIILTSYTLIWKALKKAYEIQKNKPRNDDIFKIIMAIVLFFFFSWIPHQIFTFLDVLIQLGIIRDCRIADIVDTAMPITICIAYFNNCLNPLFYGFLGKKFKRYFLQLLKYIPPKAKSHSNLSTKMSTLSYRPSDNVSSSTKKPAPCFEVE

[2] = target: T1, Type-1 angiotensin II receptor (Homo sapiens); assay: Antagonistic activity against Angiotensin II receptor type 1 in presence of eserin
[3] = Vasorelaxing activity was determined
[4] = Nitric oxide releasing effect was determined
[5] = Vasorelaxing activity in the presence of eserin was determined

Row | Kb [1] | Kb [2] | SMILES | Efficacy [3] | Efficacy [4] | Efficacy [5]
1 | 6 nM | 40 nM | CCCCc1nc(Cl)c(COC(=O)c2cccc(CO[N+](=O)[O-])c2)n1Cc1ccc(-c2ccccc2-c2nn[nH]n2)cc1 | 92% | 34 | 91
2 | – | – | O=C(O)c1cccc(CO[N+](=O)[O-])c1 | 67% | – | 71
3 | 16 nM | – | CCCCc1nc(Cl)c(COC(=O)CCCCO[N+](=O)[O-])n1Cc1ccc(-c2ccccc2-c2nn[nH]n2)cc1 | 95% | 23 | –
